# Tests used:
# SKMEL-2 = test: SRB assay, SK-MEL-2 malignant melanoma cells; assay type: cell-based, human; conditions: for % control / dE mean: SKMEL-2, 72 hours
# Excerpt: (§1) In the context of the present invention, five human tumour cell lines (four carcinoma cell lines, one sarcoma cell line) and one animal carcinoma cell line (cf. tab. 2) were investigated as examples. All the cell lines were kept in permanent cell culture in cell culture bottles with 75 cm^2 base area. They were subjected to passage once a week, and the medium was changed twice a week. At the start of the experiment (day 0), the cells were sown in cell culture plates with 96 depressions (96 well plates) in 100 μl medium per well (=0.32 cm^2) in each case, with the density shown in table 2. On days 1 and 4, the medium of all the cells was changed, and after the change of medium on day 4, incubation with the active substances (Crataegus formulations, Gentiana, superoxide dismutase, 5-fluorouracil and methotrexate; see below) or the solvents as controls started immediately. The effects of the active substances were measured on day 7 (that is to say after incubation for 72 hours) with two different methods, the so-called MTT assay and the SRB assay (see tab. 2).
# (§2) SRB assay: The SRB assay (P. Skehan et al., J. Natl. Cancer Inst. 82 (1990) 1107-1112) is based on binding of the dyestuff sulphorhodamine B (SRB) to basic proteins. The principle specifies fixing, with the aid of trichloroacetic acid, the tumour cells adhering to the culture vessel base and thereafter dyeing their protein. This dyeing is then also determined photometrically. Non-living cells are distinguished in that they first detach themselves from the cell culture base and then dissolve in the culture medium. This method therefore also measures only the living cells in a cell culture. The cells growing in 100 μl medium are first fixed with 25 μl 50% cold trichloroacetic acid at 4° C. After incubation for one hour at 4° C., all the non-fixed constituents are removed and those which remain are rinsed five times with water. After drying in air, 200 μl 0.4% sulphorhodamine B solution in 1% acetic acid or, in the photometric controls, only acetic acid,. are added. After incubation for 30 minutes at room temperature, the dyestuff solution is poured out and the culture is rinsed four times with 1% acetic acid. After removal of the rinsing solution and drying, the dyestuff adhering to the basic proteins is dissolved in 100 μl 10 mM tris-base (tris(hydroxymethyl)aminomethane) in the course of 5 minutes. The extinction was measured at 570 nm or, if the OD (optical density) lay outside the linear range, at 492 nm (for CMT-93 cells). For the evalution, ΔE was determined by subtraction of the extinction in the controls with acetic acid from the measurement values with SRB.
# (§3) The data shown in table 3 are the means of three individual measurements. ΔE measured under the action of the various test substances has additionally been shown in percent of ΔE of the particular solvent controls. The control cells, which received no test substances (Crataegus formulations) but only medium or solvent, reached 100% of their density (number) as defined at the measurement time (day 7). At the time of addition of the test substance (day 4), the cells had already reached approx. 50% of the density, and therefore also 50% of the ΔE to be measured.
# CMT-93 = test: SRB assay, CMT-93 rectum carcinoma cells; assay type: cell-based, mouse; conditions: 72 hours
# Excerpt: as §1
# as §2, with “After incubation for 30 minutes at room temperature, the dyestuff solution is poured out and the culture is rinsed four times with 1% acetic acid. After removal of the rinsing solution and drying, the dyestuff adhering to the basic proteins is dissolved in 100 μl 10 mM tris-base (tris(hydroxymethyl)aminomethane) in the course of 5 minutes.” left out
# as §3, with “The control cells, which received no test substances (Crataegus formulations) but only medium or solvent, reached 100% of their density (number) as defined at the measurement time (day 7).” left out
# SAOS-2 = test: MTT assay, SAOS-2 osteosarcoma cells; assay type: cell-based, human; conditions: 72 hours
# Excerpt: as §1
# (§4) MTT assay: The MTT assay (T. Mossman, J. Immunoll. Methods 65 (1983) 55-63) is based on measurement of the metabolic activity of living cells. The substance 3-(4,5-dimethylthiazol-2-yl)-2,5-diphenyltetrazolium bromide (MTT), which the cells reduce intracellularly to the water-insoluble dyestuff formazan, is made available to the cells. This reduction takes place only in metabolically active cells, so that this assay detects exclusively living cells. At the measurement time, in each case 100 μl MTT solution (4 mg/ml PBS, phosphate buffered saline) are added to the cells in 100 μl medium. Incubation for two hours at 37° C. then takes place. Thereafter, the medium is sucked off, so that the dyed living cells adhering to the base of the culture flask remain. These and the dyestuff are dissolved with 100 μl DMSO (dimethylsulphoxide) in the course of 5 minutes, with vigorous shaking. The extinction is then determined photometrically at 570 nm. Its linearity in the range used here, and also its correlation to the number of living cells (counted under the microscope) were detected in preliminary experiments. […] For the evaluation, ΔE was determined by subtraction of the extinction in the controls with PBS from the measurement values with MTT.
# as §3, with “The control cells, which received no test substances (Crataegus formulations) but only medium or solvent, reached 100% of their density (number) as defined at the measurement time (day 7).” left out
# Caki-1 = test: MTT assay, Caki-1 kidney carcinoma cells; assay type: cell-based, human; conditions: 72 hours
# Excerpt: as §1, §4
# as §3, with “The control cells, which received no test substances (Crataegus formulations) but only medium or solvent, reached 100% of their density (number) as defined at the measurement time (day 7).” left out
# [1] = tested on: tumour cell lines investigated; test: MTT/SRB assays, statements on all tumour cell lines investigated; assay type: cell-based; conditions: table 3
# Excerpt: as §1, with “On days 1 and 4, the medium of all the cells was changed, and after the change of medium on day 4, incubation with the active substances (Crataegus formulations, Gentiana, superoxide dismutase, 5-fluorouracil and methotrexate; see below) or the solvents as controls started immediately.” left out
# MTT assay: The MTT assay (T. Mossman, J. Immunoll. Methods 65 (1983) 55-63) is based on measurement of the metabolic activity of living cells. […] The extinction is then determined photometrically at 570 nm. Its linearity in the range used here, and also its correlation to the number of living cells (counted under the microscope) were detected in preliminary experiments. […] For the evaluation, ΔE was determined by subtraction of the extinction in the controls with PBS from the measurement values with MTT. […]
# HT-29 = test: MTT assay, HT-29 colon carcinoma cells; assay type: cell-based, human; conditions: 72 hours
# Excerpt: as §1, §4
# as §3, with “The control cells, which received no test substances (Crataegus formulations) but only medium or solvent, reached 100% of their density (number) as defined at the measurement time (day 7).” left out
# [2] = tested on: human fibroblasts, keratinocytes and endothelial cells; conditions: Fotsis et al., Cancer Research 57 (1997); cited from earlier work
# [3] = tested on: human neuroblastoma and breast carcinoma cells; conditions: Fotsis et al., Cancer Research 57 (1997); cited from earlier work
# U373MG = test: SRB assay, U373MG glioblastoma cells; assay type: cell-based, human
# Excerpt: In the context of the present invention, five human tumour cell lines (four carcinoma cell lines, one sarcoma cell line) and one animal carcinoma cell line (cf. tab. 2) were investigated as examples. All the cell lines were kept in permanent cell culture in cell culture bottles with 75 cm^2 base area. They were subjected to passage once a week, and the medium was changed twice a week. At the start of the experiment (day 0), the cells were sown in cell culture plates with 96 depressions (96 well plates) in 100 μl medium per well (=0.32 cm^2) in each case, with the density shown in table 2. […] [table] SRB assay: The SRB assay (P. Skehan et al., J. Natl. Cancer Inst. 82 (1990) 1107-1112) is based on binding of the dyestuff sulphorhodamine B (SRB) to basic proteins. The principle specifies fixing, with the aid of trichloroacetic acid, the tumour cells adhering to the culture vessel base and thereafter dyeing their protein. This dyeing is then also determined photometrically. Non-living cells are distinguished in that they first detach themselves from the cell culture base and then dissolve in the culture medium. This method therefore also measures only the living cells in a cell culture. The cells growing in 100 μl medium are first fixed with 25 μl 50% cold trichloroacetic acid at 4° C. After incubation for one hour at 4° C., all the non-fixed constituents are removed and those which remain are rinsed five times with water. After drying in air, 200 μl 0.4% sulphorhodamine B solution in 1% acetic acid or, in the photometric controls, only acetic acid,. are added. […] For the evalution, ΔE was determined by subtraction of the extinction in the controls with acetic acid from the measurement values with SRB. The data shown in table 3 are the means of three individual measurements. ΔE measured under the action of the various test substances has additionally been shown in percent of ΔE of the particular solvent controls. […] At the time of addition of the test substance (day 4), the cells had already reached approx. 50% of the density, and therefore also 50% of the ΔE to be measured.
# [4] = solvent H2O 0.10% final conc, 1 μg/ml
# [5] = U373MG, medium, 45 μg/ml, 72 hours
compound,measurement,setting,value
"Superoxide dismutase: Superoxide dismutase from bovine erythrocytes, superoxide scavenger comparison",% control,SKMEL-2; [4],94%
same,dE mean,SKMEL-2; [4],1.340
same,% control,CMT-93; [4],92%
same,dE mean,CMT-93; [4],0.326
same,% control,SAOS-2; [4],98%
same,dE mean,SAOS-2; [4],0.564
same,% control,Caki-1; [4],97%
same,dE mean,Caki-1; [4],1.442
same,"cytostatic/cytotoxic action on the cell lines investigated, in words",[1],no cytostatic or cytotoxic effects
same,% control,HT-29; [4],90%
same,dE mean,HT-29; [4],1.725
O=c1cc(-c2ccc(O)c(O)c2)oc2cc(O[C@@H]3O[C@H](CO)[C@@H](O)[C@H](O)[C@H]3O)cc(O)c12 [luteolin-7-glucoside],"effect on proliferation of human fibroblasts, keratinocytes and endothelial cells",[2],inhibits the proliferation
same,effect on proliferation of human neuroblastoma and breast carcinoma cells,[3],inhibiting effect
O=c1c(O)c(-c2ccc(O)c(O)c2)oc2cc(O)cc(O)c12 [quercetin],"effect on proliferation of human fibroblasts, keratinocytes and endothelial cells",[2],inhibits the proliferation
same,effect on proliferation of human neuroblastoma and breast carcinoma cells,[3],inhibiting effect
CN(Cc1cnc2nc(N)nc(N)c2n1)c1ccc(C(=O)N[C@@H](CCC(=O)O)C(=O)O)cc1 [Methotrexate],% control,"SKMEL-2; medium, 45 μg/ml",119%
same,dE mean,"SKMEL-2; medium, 45 μg/ml",2.429
same,"cytostatic/cytotoxic action on SKMEL-2 cells, in words",SKMEL-2; table 3,resistance
same,% control,"SAOS-2; medium, 45 μg/ml",41%
same,dE mean,"SAOS-2; medium, 45 μg/ml",0.259
same,% control,U373MG; [5],135%
same,dE mean,U373MG; [5],1.449
same,"cytostatic/cytotoxic action on U373MG cells, in words",U373MG; table 3,resistance
same,% control,"Caki-1; medium, 45 μg/ml",47%
same,dE mean,"Caki-1; medium, 45 μg/ml",0.679
O=c1[nH]cc(F)c(=O)[nH]1 [5-Fluorouracil],% control,"CMT-93; medium, 25 μg/ml",63%
same,dE mean,"CMT-93; medium, 25 μg/ml",0.191
same,% control,"HT-29; medium, 25 μg/ml",53%
same,dE mean,"HT-29; medium, 25 μg/ml",0.973

# Source: patent US6440451B1, “Use of crataegus formulations for prophylaxis and treatment of neoplastic diseases” (Nativia Health Products GmbH, priority 1998, dated 2002)
